Data: patent US12441768B2, “Compositions and methods for treating endometriosis” (EndoMet Biosciences, Inc., priority 2018, dated 2025)
Read-outs that look alike come from different tables or passages of the source. Where a SMILES comes first, the peptide text is derived from it.

What was measured:
[1] = in vitro; conditions: % Viability non-Wnt responsive cells
[2] = target: Wnt-responsive promoter (TCF/LEF); test: Wnt-dependent luciferase reporter assay; format: cell-based, murine
How it was run: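 Murine 3T3 fibroblasts carrying a TCF/LEF-driven luciferase reporter, stimulated with Wnt3a in the presence of increasing peptide concentrations or vehicle. Luminescence inhibition gave EC50 values in uM.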

[3] = % Viability non-Wnt responsive cells
[4] = target: T1, β-catenin (Homo sapiens, UniProt P35222); test: KD50 measurement using competitive fluorescence polarization (FP) with labelled TCF4; format: binding; conditions: fluorescence polarization, β-catenin; for Kd: read-out: β-Cat FP KD
T1 sequence (P35222 1-781): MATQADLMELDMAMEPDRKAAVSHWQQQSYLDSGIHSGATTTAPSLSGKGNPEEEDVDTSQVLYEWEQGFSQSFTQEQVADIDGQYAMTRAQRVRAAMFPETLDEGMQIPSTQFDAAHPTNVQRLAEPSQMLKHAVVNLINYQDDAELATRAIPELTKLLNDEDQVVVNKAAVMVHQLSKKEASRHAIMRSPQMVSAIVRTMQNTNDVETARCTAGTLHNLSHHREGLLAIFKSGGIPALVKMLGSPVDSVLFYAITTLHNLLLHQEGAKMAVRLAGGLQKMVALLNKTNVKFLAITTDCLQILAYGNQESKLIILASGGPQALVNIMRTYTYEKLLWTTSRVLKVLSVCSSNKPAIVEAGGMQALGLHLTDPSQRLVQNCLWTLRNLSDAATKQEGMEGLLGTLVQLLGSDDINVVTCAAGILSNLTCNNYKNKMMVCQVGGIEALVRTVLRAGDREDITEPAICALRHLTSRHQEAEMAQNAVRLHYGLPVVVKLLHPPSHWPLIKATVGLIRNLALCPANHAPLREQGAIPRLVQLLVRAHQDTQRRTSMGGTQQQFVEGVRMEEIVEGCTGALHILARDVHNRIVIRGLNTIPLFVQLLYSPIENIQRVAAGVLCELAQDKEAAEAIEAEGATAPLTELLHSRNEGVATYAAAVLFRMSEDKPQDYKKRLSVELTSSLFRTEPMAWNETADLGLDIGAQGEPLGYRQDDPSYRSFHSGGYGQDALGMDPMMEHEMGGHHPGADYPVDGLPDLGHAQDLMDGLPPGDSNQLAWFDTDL
How it was run: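 First, β-catenin at 100 nM is mixed with 5 nM labelled TCF4 at room temperature. Next, compound is added across serial dilutions (10 nM to 30 uM). Finally, fluorescence polarization is measured (ex 470 nm, em 520 nm); experiments are done three times.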

SMILES	EC50 [2]	β-Cat FP Hill slope [4]	Kd [4]	viability [1]	viability [3]
CC[C@H](C)[C@@H]1NC(=O)[C@H](CC(C)C)NC(=O)[C@H](Cc2ccccc2)NC(=O)[C@H](Cc2c[nH]c3ccccc23)NC(=O)[C@H](CCSC)NC(=O)[C@@H](N)CCCCNC(=O)CNC(=O)[C@H](Cc2c[nH]c3ccccc23)NC(=O)[C@H](Cc2ccccc2)NC(=O)[C@H](CO)NC1=O [compound 26] (HELM PEPTIDE1{K.M.W.F.L.I.S.F.W.G}$PEPTIDE1,PEPTIDE1,1:R3-10:R2$$$V2.0; bridges inferred)	7.5 to 15 µM			88%	
CC[C@H](C)[C@H](NC(=O)[C@H](CC(C)C)NC(=O)[C@H](Cc1ccccc1)NC(=O)[C@H](Cc1c[nH]c2ccccc12)NC)C(=O)N[C@@H](CO)C(=O)N[C@@H](Cc1ccccc1)C(=O)N[C@@H](Cc1c[nH]c2ccccc12)C(=O)O [compound 111] (HELM PEPTIDE1{[meW].F.L.I.S.F.W}$$$$V2.0)	7.5 to 15 µM	2.06	0.4 to 1 µM		99.8%
CC[C@H](C)[C@H](NC(=O)[C@H](Cc1c[nH]c2ccccc12)NC(=O)[C@@H](N)CCSC)C(=O)N[C@@H](CC(C)C)C(=O)N[C@H](C(=O)N[C@@H](CS)C(=O)NC(C)(Cc1ccccc1)C(=O)N[C@@H](Cc1c[nH]c2ccccc12)C(=O)NCC(=O)O)[C@@H](C)CC (some centres unmarked) [compound 121] (HELM PEPTIDE1{M.W.I.L.I.C.[CC(Cc1ccccc1)(N[*:1])C(=O)[*:2]].W.G}$$$$V2.0)	< 7.5 µM	0.74	< 0.4 µM		150%
CC[C@H](C)[C@H](NC(=O)[C@H](CC(C)C)NC(=O)[C@H](Cc1ccccc1)NC(=O)[C@@H](N)Cc1c[nH]c2ccccc12)C(=O)N[C@@H](CO)C(=O)N[C@@H](Cc1ccc(O)cc1)C(=O)N[C@@H](Cc1c[nH]c2ccccc12)C(=O)O [compound 109] (H-WFLISYW-OH)	7.5 to 15 µM	3	1 to 10 µM		103%
CC[C@H](C)[C@@H]1NC(=O)[C@H](CC(C)C)NC(=O)[C@H](Cc2ccccc2)NC(=O)[C@H](Cc2c[nH]c3ccccc23)N(C)C(=O)[C@H](CCSC)NC(=O)[C@H](CCCNC(=N)N)NC(=O)[C@H]([C@@H](C)CC)NC(=O)[C@H](CCSC)NC(=O)[C@@H](N)CCCCNC(=O)CCCCCCCNC(=O)CNC(=O)[C@H](Cc2c[nH]c3ccccc23)NC(=O)[C@H](Cc2ccccc2)NC(=O)[C@H](CO)NC1=O [compound 21] (HELM PEPTIDE1{K.M.I.R.M.[meW].F.L.I.S.F.W.G.[O=C(CCCCCCCN[*:1])[*:2]]}$PEPTIDE1,PEPTIDE1,1:R3-14:R2$$$V2.0)	> 30 µM		> 30 µM		98.7%
CC[C@H](C)[C@H](NC(=O)[C@H](CC(C)C)NC(=O)[C@H](Cc1ccccc1)NC(=O)[C@H](Cc1c[nH]c2ccccc12)NC(=O)[C@H](Cc1c[nH]cn1)NC(=O)[C@H](CCCNC(=N)N)NC(=O)[C@H](CO)NC(=O)[C@@H](N)Cc1c[nH]c2ccccc12)C(=O)N[C@@H](CO)C(=O)N[C@@H](Cc1ccccc1)C(=O)N[C@@H](Cc1c[nH]c2ccccc12)C(N)=O [compound 91] (H-WSRHWFLISFW-NH2)	> 30 µM		> 30 µM		84.6%
CC[C@H](C)[C@H](NC(=O)[C@H](CC(C)C)NC(=O)[C@H](Cc1ccccc1)NC(=O)[C@H](Cc1c[nH]c2ccccc12)NC(=O)[C@H](Cc1c[nH]cn1)NC(=O)[C@H](CCCNC(=N)N)NC(=O)[C@H](CO)NC(=O)[C@@H](N)CCSC)C(=O)N[C@@H](CO)C(=O)N[C@@H](Cc1ccccc1)C(=O)N[C@@H](Cc1c[nH]c2ccccc12)C(N)=O [compound 88] (H-MSRHWFLISFW-NH2)	> 30 µM		> 30 µM		105%
CC[C@H](C)[C@H](NC(=O)[C@H](CC(C)C)NC(=O)[C@H](Cc1ccccc1)NC(=O)[C@H](Cc1c[nH]c2ccccc12)NC(=O)[C@H](CCSC)NC(=O)[C@H](CCCNC(=N)N)NC(=O)[C@H](CO)NC(=O)[C@@H](N)Cc1c[nH]c2ccccc12)C(=O)N[C@@H](CO)C(=O)N[C@@H](Cc1ccccc1)C(=O)N[C@@H](Cc1c[nH]c2ccccc12)C(N)=O [compound 79] (H-WSRMWFLISFW-NH2)	> 30 µM		> 30 µM		98.8%
CC[C@H](C)[C@H](NC(=O)[C@H](CC(C)C)NC(=O)[C@H](Cc1ccccc1)NC(=O)[C@H](Cc1c[nH]c2ccccc12)NC(=O)[C@H](CCSC)NC(=O)[C@H](CCCNC(=N)N)NC(=O)[C@H](CO)NC(=O)[C@@H](N)Cc1c[nH]cn1)C(=O)N[C@@H](CO)C(=O)N[C@@H](Cc1ccccc1)C(=O)N[C@@H](Cc1c[nH]c2ccccc12)C(N)=O [compound 89] (H-HSRMWFLISFW-NH2)	> 30 µM		> 30 µM		107%

Continued, in another order:

EC50 [2]	β-Cat FP Hill slope [4]	Kd [4]	SMILES	viability [1]	viability [3]
22.5 to 30 µM	0.7	1 to 10 µM	CC[C@H](C)[C@@H]1NC(=O)[C@H](CC(C)C)NC(=O)[C@H](Cc2ccccc2)NC(=O)[C@H](Cc2c[nH]c3ccccc23)NC(=O)[C@@H](N)CCCCNC(=O)CC[C@@H](C(=O)O)NC(=O)[C@H](Cc2c[nH]c3ccccc23)NC(=O)[C@H](Cc2ccccc2)NC(=O)[C@H](C)NC1=O [compound 201] (HELM PEPTIDE1{K.W.F.L.I.A.F.W.E}$PEPTIDE1,PEPTIDE1,1:R3-9:R3$$$V2.0)		60.1%
< 7.5 µM	0.7	0.4 to 1 µM	CC[C@H](C)[C@H](NC(=O)[C@H](CC(C)C)NC(=O)[C@H](Cc1ccccc1)NC(=O)[C@H](Cc1c[nH]c2ccccc12)NC(=O)[C@@H](N)CCSC)C(=O)N[C@@H](CSC)C(=O)N[C@@H](Cc1ccccc1)C(=O)N[C@@H](Cc1c[nH]c2ccccc12)C(=O)NCC(=O)O [compound 214] (H-MWFLIC(Me)FWG-OH)		102%
< 7.5 µM		> 30 µM	CC[C@H](C)[C@H](NC(=O)[C@H](CC(C)C)NC(=O)[C@H](Cc1ccccc1)NC(=O)[C@H](Cc1c[nH]c2ccccc12)NC(=O)[C@@H](N)CCSC)C(=O)N[C@@H](CS)C(=O)N[C@@H](Cc1ccccc1)C(=O)N[C@@H](Cc1c[nH]c2ccccc12)C(=O)NCCCC(=O)O [compound 153] (HELM PEPTIDE1{M.W.F.L.I.C.F.W.[O=C(O)CCCN[*:1]]}$$$$V2.0)		104%
< 7.5 µM	0.7	1 to 10 µM	CC[C@H](C)[C@@H]1NC(=O)[C@H](CC(C)C)NC(=O)[C@H](Cc2ccccc2)NC(=O)[C@H](Cc2c[nH]c3ccccc23)NC(=O)[C@@H](N)CCCCNC(=O)CC[C@@H](C(=O)O)NC(=O)[C@H](Cc2c[nH]c3ccccc23)NC(=O)[C@H](C)NC(=O)[C@H](CO)NC1=O [compound 183] (HELM PEPTIDE1{K.W.F.L.I.S.A.W.E}$PEPTIDE1,PEPTIDE1,1:R3-9:R3$$$V2.0)		97%
7.5 to 15 µM		> 30 µM	CC[C@H](C)[C@@H]1NC(=O)[C@H](CC(C)C)NC(=O)[C@H](Cc2ccccc2)NC(=O)[C@H](Cc2c[nH]c3ccccc23)NC(=O)[C@H](CCSC)NC(=O)[C@@H](N)CC(=O)NCCCC[C@@H](C(=O)NCC(=O)O)NC(=O)[C@H](Cc2c[nH]c3ccccc23)NC(=O)[C@H](Cc2ccccc2)NC(=O)[C@H](CS)NC1=O [compound 177] (HELM PEPTIDE1{D.M.W.F.L.I.C.F.W.K.G}$PEPTIDE1,PEPTIDE1,1:R3-10:R3$$$V2.0)		98.6%
